Experimental data taken from patent publication US8933052B2, “Uracyl spirooxetane nucleosides” (Janssen Products, LP, priority 2009, dated 2015).
Where two headings read alike, the source gives them in different places.

How the values were obtained:
[1] = system: HIV; settings: described in Org. Biomol. Chem., 2003, 3514-3526; cited from earlier work
[2] = system: HCV type 1b replicon; test: HCV replicon assay (Huh-Luc cells, luciferase readout); format: cell-based; settings: Hepatitis C virus, 72 h, read-out: EC50 (μM) (HCV)
Text: (§1) The in vitro antiviral activity against HCV of the compounds of formula I can be tested in a cellular HCV replicon system based on Lohmann et al. (1999) Science 285:110-113, with the further modifications described by Krieger et al. (2001) Journal of Virology 75: 4614-4624 (incorporated herein by reference), which is further exemplified in the examples section. This model, while not a complete infection model for HCV, is widely accepted as the most robust and efficient model of autonomous HCV RNA replication currently available. It will be appreciated that it is important to distinguish between compounds that specifically interfere with HCV functions from those that exert cytotoxic or cytostatic effects in the HCV replicon model, and as a consequence cause a decrease in HCV RNA or linked reporter enzyme concentration. Assays are known in the field for the evaluation of cellular cytotoxicity based for example on the activity of mitochondrial enzymes using fluorogenic redox dyes such as resazurin. Furthermore, cellular counter screens exist for the evaluation of non-selective inhibition of linked reporter gene activity, such as firefly luciferase. Appropriate cell types can be equipped by stable transfection with a luciferase reporter gene whose expression is dependent on a constitutively active gene promoter, and such cells can be used as a counter-screen to eliminate non-selective inhibitors.
The compounds of formula I were examined for activity in the inhibition of HCV-RNA replication in a cellular assay. […] The cellular assay was based on a bicistronic expression construct, as described by Lohmann et al. (1999) Science vol. 285 pp. 110-113 with modifications described by Krieger et al. (2001) Journal of Virology 75: 4614-4624, in a multi-target screening strategy.
In essence, the method was as follows. The assay utilized the stably transfected cell line Huh-7 luc/neo (hereafter referred to as Huh-Luc). This cell line harbors an RNA encoding a bicistronic expression construct comprising the wild type NS3-NS5B regions of HCV type 1b translated from an internal ribosome entry site (IRES) from encephalomyocarditis virus (EMCV), preceded by a reporter portion (FfL-luciferase), and a selectable marker portion (neo^R, neomycine phosphotransferase). The construct is bordered by 5′ and 3′ NTRs (non-translated regions) from HCV genotype 1b. Continued culture of the replicon cells in the presence of G418 (neo^R) is dependent on the replication of the HCV-RNA. The stably transfected replicon cells that express HCV-RNA, which replicates autonomously and to high levels, encoding inter alia luciferase, were used for screening the antiviral compounds.
The replicon cells were plated in 384-well plates in the presence of the test and control compounds which were added in various concentrations. Following an incubation of three days, HCV replication was measured by assaying luciferase activity (using standard luciferase assay substrates and reagents and a Perkin Elmer ViewLux™ ultraHTS microplate imager). Replicon cells in the control cultures have high luciferase expression in the absence of any inhibitor. The inhibitory activity of the compound on luciferase activity was monitored on the Huh-Luc cells, enabling a dose-response curve for each test compound. EC50 values were then calculated, which value represents the amount of the compound required to decrease the level of detected luciferase activity by 50%, or more specifically, the ability of the genetically linked HCV replicon RNA to replicate.

[3] = Cytotoxicity in Huh-7 cells; format: cell-based; settings: human
Text: as §1, with “inhibitors. […]” for “inhibitors.”

[4] = system: HIV; test: HIV activity; format: cell-based; settings: Human immunodeficiency virus 1, read-out: EC50 (μM) (HIV)
Text: (§2) Also the HIV activity is given (EC50 HIV (μM)) and the cellular toxicity in the HIV cell-line (CC50 (μM) (MT-4)).

[5] = Cellular toxicity in the HIV cell-line MT-4; format: cell-based; settings: human, MT-4 cells, read-out: CC50 (μM) (MT4)
Text: as §2

[6] = Huh-Luc replicon cells, HCV type 1b, three days incubation, luciferase activity

Structure (SMILES)	activity against HIV [1]	EC50 [2, 6] [µM]	CC50 [3] [µM]	EC50 [4] [µM]	CC50 [5] [µM]	EC50 [2] [µM]
Cc1cn([C@@H]2O[C@H](CO)[C@@H](O)[C@]23CCO3)c(=O)[nH]c1=O [1-(2-O,2-C-ethano-β-D-ribofuranosyl)thymine]	no activity					
O=c1ccn([C@@H]2O[C@H](CO)[C@@H](O)[C@]23CCO3)c(=O)[nH]1 [1-(2-O,2-C-ethano-β-D-ribofuranosyl)uracil]	no activity					
CC[C@H](NP(=O)(OC[C@H]1O[C@@H](n2ccc(=O)[nH]c2=O)[C@@]2(CCO2)[C@@H]1O)Oc1ccccc1)C(=O)OCc1ccccc1 (stereo partly drawn) [Compound 12a]		3.4	> 98	> 98	> 98	
C[C@H](NP(=O)(OC[C@H]1O[C@@H](n2ccc(=O)[nH]c2=O)[C@@]2(CCO2)[C@@H]1O)Oc1ccccc1)C(=O)OCc1ccccc1 (stereo partly drawn) [Compound 12b]		3.7	> 98	> 98	> 98	
C[C@H](NP(=O)(OC[C@H]1O[C@@H](n2ccc(=O)[nH]c2=O)[C@@]2(CCO2)[C@@H]1O)Oc1ccccc1)C(=O)OCC(C)(C)C (stereo partly drawn) [Compound 12c]		5.6	> 98	> 98	> 98	
CCCCOC(=O)[C@H](C)NP(=O)(OC[C@H]1O[C@@H](n2ccc(=O)[nH]c2=O)[C@@]2(CCO2)[C@@H]1O)Oc1ccccc1 (stereo partly drawn) [Compound 12d]		5.5	> 98	> 98	> 98	
COC(=O)C(C)(C)NP(=O)(OC[C@H]1O[C@@H](n2ccc(=O)[nH]c2=O)[C@@]2(CCO2)[C@@H]1O)Oc1ccccc1 (stereo partly drawn) [Compound 12e, methyl 2-[[[(4R,5R,7R,8R)-5-(2,4-dioxo-3,4-dihydropyrimidin-1(2H)-yl)-8-hydroxy-1,6-dioxaspiro[3.4]octan-7-yl]methoxy](phenoxy)phosphorylamino]-2-methylpropanoate]		23.4	> 98	> 98	> 98	
Cc1ccc(C(C)C)c(OP(=O)(N[C@@H](C)C(=O)OCc2ccccc2)OC[C@H]2O[C@@H](n3ccc(=O)[nH]c3=O)[C@@]3(CCO3)[C@@H]2O)c1 (stereo partly drawn) [Compound 12f]		8.7	18.7	> 98	1.3	
CC(C)OC(=O)[C@H](C)NP(=O)(OC[C@H]1O[C@@H](n2ccc(=O)[nH]c2=O)[C@@]2(CCO2)[C@@H]1O)Oc1ccccc1 (stereo partly drawn) [Compound 12g]		17.8	> 98	> 98	> 98	
O=C(OCc1ccccc1)[C@@H](NP(=O)(OC[C@H]1O[C@@H](n2ccc(=O)[nH]c2=O)[C@@]2(CCO2)[C@@H]1O)Oc1ccccc1)c1ccccc1 (stereo partly drawn) [Compound 12h]			> 88	> 98	> 98	79.6
CC[C@H](NP(=O)(OC[C@H]1O[C@@H](n2ccc(=O)[nH]c2=O)[C@@]2(CCO2)[C@@H]1O)Oc1ccccc1)C(=O)OC(C)C (stereo partly drawn) [Compound 12i]		> 96	> 98	> 98	> 98	
C[C@H](NP(=O)(OC[C@H]1O[C@@H](n2ccc(=O)[nH]c2=O)[C@@]2(CCO2)[C@@H]1O)Oc1ccc(Cl)cc1)C(=O)OCc1ccccc1 (stereo partly drawn) [Compound 12j]		0.7	> 98	> 98	> 98	
C[C@H](NP(=O)(OC[C@H]1O[C@@H](n2ccc(=O)[nH]c2=O)[C@@]2(CCO2)[C@@H]1O)Oc1cccc2ccccc12)C(=O)OCc1ccccc1 (stereo partly drawn) [Compound 12k]		2	> 98	> 76.9	> 98	
CC(C)COC(=O)[C@H](C)NP(=O)(OC[C@H]1O[C@@H](n2ccc(=O)[nH]c2=O)[C@@]2(CCO2)[C@@H]1O)Oc1ccccc1 (stereo partly drawn) [Compound 12l]		0.44	> 98	> 98	> 98	
O=C(CNP(=O)(OC[C@H]1O[C@@H](n2ccc(=O)[nH]c2=O)[C@@]2(CCO2)[C@@H]1O)Oc1ccc(Cl)cc1)OCc1ccccc1 (stereo partly drawn) [Compound 12m]		7.17	> 98	> 98	> 98	
